Measured values from US10028913B2, “Liposomal pharmaceutical preparation and method for manufacturing the same” (priority 2006, dated 2018).
“And” between values parts separate entries of the source, which are not always exact repeats. Equal entries are not always repeated. Where two headings read alike, the source gives them in different places.

Key:
[1] = Pharmacokinetics of PLM60 and FM in Kunming mice (plasma level of mitoxantrone); assay type: in vivo; conditions: 2 mg/kg, tail vein
Procedure: This example was conducted in male Kunming mice with a body weight of about 20 g. Different dose levels of mitoxantrone were injected through tail vein in mice. […] Plasma samples were taken at different time points. The methods for processing and detecting plasma samples were described in the document: Methods in enzymology, Vol: 391, p176-185.

Kunming mice = experiment: Acute toxicity comparison of PLM60 and FM to Kunming mice; assay type: in vivo
From the text: Mice of groups 1-5 were administrated with different dose levels of FM, while mice of groups 6-10 were administrated with an equivalent dose level of liposomal drug. […] The dead animals were dissected and autopsied.

L1210 ascitic tumor = experiment: Treatment effects of liposomal mitoxantrone with different size on L1210 ascitic tumor; assay type: in vivo, BDF1 mice; conditions: 4 mg/kg, 60 days observation
From the text: (§1) Ascitic tumor BDF1 mice which were inoculated with L1210 ascitic tumor cells 7 days ago were executed by decollation, and milky viscous ascitic fluid was extracted under aseptic condition and diluted by RPMI 1640 medium. After dilution, the tumor cell number was adjusted to 2.5×10^6 cells/ml. […] After inoculation, the cells in the residual tumor cell suspension were counted under light microscope, and living tumor cells were greater than 95%.
After administration, the mice were bred normally. Their body weights were measured 3 times per week, the death time of each mouse was observed and recorded, and survival time was calculated. Mean survival time (MST) and median survival time were employed to evaluate the survival time of each group. Experimental observation was kept for 60 days after the inoculation.
The experimental scheme and data process mode were the same as Example 19. […] The administration dosage for mice in each group was 4 mg/kg.

C57 mice = experiment: Toxicity comparison of liposome formulations with different sizes; assay type: in vivo
Procedure: The dose was 9 mg/kg. […] In mice of FM group, the body weight decreased over 30% and about 20% mice died.

[2] = two dissociable groups at physiological pH; cited from earlier work
S180 solid tumor = experiment: Treatment effects on S-180 sarcoma solid tumor; assay type: in vivo, KM mice; conditions: 21st day after inoculation
Procedure: as §1, with “Ascitic tumor-bearing” for “Ascitic tumor BDF1”, “with S180” for “with L1210 ascitic”, “extracted” for “extracted under aseptic condition”, “diluted with” for “diluted by”, “95%. The number of inoculated mice was 80.” for “95%.”
The mice were administered by intravenous injection.
The mice were bred normally after administration. Tumor diameters were measured by vernier caliper 3 times per week, and body weights were measured at the same time. Tumor volume (TV) was calculated with the following formula: V=½×a×b2, in which a and b represent length and width, respectively. The tumor volumes were calculated by using the measurement results. Mice were executed by decollation on the 21st day after inoculation, tumors were taken out and weighed. […] The experimental result was tested by t-test.

[3] = Tissue distribution in S-180 tumor-bearing mice; assay type: in vivo; conditions: male, Kunming, mouse, intravenous, 4 mg/kg i.v.; for concentration at 1 h: t 1 h; for concentration at 4 h: t 4 h; for concentration at 8 h: t 8 h; for concentration at 24 h: t 24 h
Procedure: There were obvious differences in tissue distribution between PLM60 and FM in tumor-bearing mice. Male Kunming mice having a body weight about 20 g were used in the present example. […] Drugs were injected through vein in mice when tumor grew to 0.4-0.7 g. After the administration of drugs, mice were executed at various time points and their tissues were taken out to determine the concentration of mitoxantrone. The tissues included hearts, livers, spleens, lungs, kidneys, intestines, bone marrow and tumors.

[4] = heart, read-out: concentration of mitoxantrone in Heart
[5] = intestine, read-out: concentration of mitoxantrone in Intestine
[6] = kidney, read-out: concentration of mitoxantrone in Kidney
[7] = liver, read-out: concentration of mitoxantrone in Liver
[8] = lung, read-out: concentration of mitoxantrone in Lung
[9] = spleen, read-out: concentration of mitoxantrone in Spleen
[10] = tumor, read-out: concentration of mitoxantrone in Tumor

In the case of `O=C1c2c(O)ccc(O)c2C(=O)c2c(NCCNCCO)ccc(NCCNCCO)c21` [FM, mitoxantrone], the “AUMC 0-48” value [1] is reported as 0.103, the “AUMC 0-∞” value [1] is reported as 0.135 and the AUC(0-inf) ([1]; male, Kunming, mouse, iv) is reported as 199 ng·h/mL. For the same compound, the Cmax ([1]; male, Kunming, mouse, iv) was 699 ng/mL, the Tmax ([1]; male, Kunming, mouse, iv) was 4.98 min and the AUC(0-t) ([1]; male, Kunming, mouse, iv, read-out: AUC 0-48) was 198 ng·h/mL. For the same compound, the MRT last ([1]; male, Kunming, mouse, iv, read-out: MRT 0-48) was 31 min, the MRT inf ([1]; male, Kunming, mouse, iv, read-out: MRT 0-∞) was 40.5 min and the “Survival time of mice (male / female), individual animals” value (Kunming mice; dose 12 mg/kg) was 18 day (4×) and 13 day (3×). The “Survival time of mice (male / female), individual animals” value (Kunming mice; dose 20 mg/kg) was 7 day (4×) and 8 day (3×), the Mean survival time (L1210 ascitic tumor) was 38.67 ± 3.54 and the Median survival time (L1210 ascitic tumor) was 36.00 ± 6.06. The Survival rate (L1210 ascitic tumor) was 33.33%, the mice died (C57 mice; male C57 mice, FM group) was “about 20%” and the body weight decrease (C57 mice; mouse, in vivo) was “over 30%”. For the same compound, the pKa [2] was 8.15, the Weight of tumor (S180 solid tumor; 4 mg/kg i.v.) was 2828.5 ± 1067.8 mg and the Ratio of tumor-inhibiting (S180 solid tumor; 6 mg/kg i.v.) was 18.50%. It also gave a Weight of tumor (S180 solid tumor; 6 mg/kg i.v.) of 2293.3 ± 1720.0 mg, a concentration at 1 h ([3]; bone marrow, read-out: concentration of mitoxantrone in Bone marrow) of 127 ng/g and a concentration at 1 h [3, 4] of 5380 ng/g. For the same compound, the concentration at 4 h [3, 4] was 3520 ng/g, the concentration at 8 h [3, 4] was 3200 ng/g and the concentration at 24 h [3, 4] was 2940 ng/g. It also gave a concentration at 1 h [3, 5] of 1530 ng/g, a concentration at 4 h [3, 5] of 2140 ng/g and a concentration at 8 h [3, 5] of 2550 ng/g. For the same compound, the concentration at 24 h [3, 5] was 3940 ng/g, the concentration at 1 h [3, 6] was 18200 ng/g and the concentration at 4 h [3, 6] was 17200 ng/g. For the same compound, the concentration at 8 h [3, 6] was 13400 ng/g, the concentration at 24 h [3, 6] was 7460 ng/g and the concentration at 1 h [3, 7] was 4770 ng/g. The concentration at 4 h [3, 7] was 3560 ng/g, the concentration at 8 h [3, 7] was 2660 ng/g and the concentration at 24 h [3, 7] was 1940 ng/g. The concentration at 1 h [3, 8] was 10200 ng/g, the concentration at 4 h [3, 8] was 8020 ng/g and the concentration at 8 h [3, 8] was 7020 ng/g. For the same compound, the concentration at 24 h [3, 8] was 8080 ng/g, the concentration at 1 h [3, 9] was 4040 ng/g and the concentration at 4 h [3, 9] was 4460 ng/g. For the same compound, the concentration at 8 h [3, 9] was 3770 ng/g, the concentration at 24 h [3, 9] was 7750 ng/g and the concentration at 1 h [3, 10] was 61.4 ng/g. For the same compound, the concentration at 4 h [3, 10] was 13.3 ng/g.
